Reference: patent publication US20240343681A1, “MOLECULES HAVING PESTICIDAL UTILITY AND INTERMEDIATES AND PROCESSES RELATED THERETO” (priority 2021, published 2024)

Assays:
[1] = system: Yellow Fever Mosquito (Aedes aegypti, AEDSAE) larvae; assay: Bioassay on yellow fever mosquito (YFM), 96-well plate larval assay; type: in vivo; conditions: 4000 ppm (master plate solution), about 1 day-old larvae, 3 days
Description: Example B: Bioassays on Yellow Fever Mosquito (Aedes aegypti, AEDSAE) (“YFM”)
Master plates containing 400 μg of a molecule dissolved in 100 μL of dimethyl sulfoxide (DMSO) (equivalent to a 4000 ppm solution) are used. A master plate of assembled molecules contains 15 μL per well. To this plate, 135 μL of a 90:10 water/acetone mixture is added to each well. A robot (Biomek® NXP Laboratory Automation Workstation) is programmed to dispense 15 μL aspirations from the master plate into an empty 96-well shallow plate (“daughter” plate). There are 6 reps (“daughter” plates) created per master. The created “daughter” plates are then immediately infested with YFM larvae.
The day before plates are to be treated, mosquito eggs are placed in Millipore water containing liver powder to begin hatching (4 g into 400 mL). After the “daughter” plates are created using the robot, they are infested with 220 μL of the liver powder/larval mosquito mixture (about 1 day-old larvae). After plates are infested with mosquito larvae, a non-evaporative lid is used to cover the plate to reduce drying. Plates are held at room temperature for 3 days prior to grading. After 3 days, each well is observed and scored based on mortality.

[2] = system: Beet Armyworm (Spodoptera exigua, LAPHEG) second instar larva; assay: Bioassay on beet armyworm (BAW), 128-well diet tray assay; type: in vivo; conditions: 50 μg/cm^2 on artificial diet, 25° C., five days
Procedure, shortened: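 Test molecule in 90:10 acetone–water applied at 50 μg/cm^2 onto 1 mL artificial diet and dried; one second-instar larva per well, eight wells. Held 5 days at 25 °C, 14:10 light–dark; percent mortality averaged over the eight wells.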

For `CCC(F)(F)C(=O)Nc1cc(NC(=O)[C@H]2[C@H](c3cc(Cl)cc(Cl)c3)C2(Cl)Cl)ccc1Cl` (racemic) [F58, trans-rac-2,2-Dichloro-N-(4-chloro-3-(2,2-difluorobutanamido)phenyl)-3-(3,5-dichlorophenyl)cyclopropane-1-carboxamide], the “activity against YFM (scored based on mortality)” value (shortened to “activity against YFM”) [1] was “exhibited activity” and the “activity against BAW (percent mortality, averaged over eight wells)” value [2] was “exhibited activity”.
In the case of `Cc1cc(C#N)ccc1C(=O)Nc1cc(NC(=O)[C@H]2[C@H](c3cc(Cl)cc(Cl)c3)C2(Cl)Cl)ccc1F` (racemic) [F60, trans-rac-4-Cyano-N-(5-(2,2-dichloro-3-(3,5-dichlorophenyl)cyclopropane-1-carboxamido)-2-fluorophenyl)-2-methylbenzamide], the “activity against YFM” value [1] is reported as “exhibited activity” and the “activity against BAW (percent mortality, averaged over eight wells)” value [2] is reported as “exhibited activity”.
`O=C(Nc1cc(NC(=O)[C@H]2[C@H](c3cc(Cl)cc(Cl)c3)C2(Cl)Cl)ccc1F)c1c(F)cccc1F` (racemic) [F61, trans-rac-N-(5-(2,2-Dichloro-3-(3,5-dichlorophenyl)cyclopropane-1-carboxamido)-2-fluorophenyl)-2,6-difluorobenzamide] was tested, and the “activity against YFM” value [1] was “exhibited activity” and the “activity against BAW (percent mortality, averaged over eight wells)” value [2] was “exhibited activity”.
With `O=C(Nc1cc(NC(=O)[C@H]2[C@H](c3cc(Cl)cc(Cl)c3)C2(Cl)Cl)ccc1F)c1cc(F)cc(F)c1` (racemic) [F62, trans-rac-N-(5-(2,2-Dichloro-3-(3,5-dichlorophenyl)cyclopropane-1-carboxamido)-2-fluorophenyl)-3,5-difluorobenzamide] the “activity against YFM” value [1] was “exhibited activity” and the “activity against BAW (percent mortality, averaged over eight wells)” value [2] was “exhibited activity”.
`CC(CC(=O)Nc1cc(NC(=O)C2C(c3cc(Cl)cc(Cl)c3)C2(Cl)Cl)ccc1F)C(F)(F)F` (racemic) [F64, trans-rac-2,2-Dichloro-3-(3,5-dichlorophenyl)-N-(4-fluoro-3-(4,4,4-trifluoro-3-methylbutanamido)phenyl)cyclopropane-1-carboxamide] was tested, and the “activity against YFM” value [1] was “exhibited activity” and the “activity against BAW (percent mortality, averaged over eight wells)” value [2] was “exhibited activity”.
In the case of `O=C(Nc1cc(NC(=O)[C@H]2[C@H](c3cc(Cl)cc(Cl)c3)C2(Cl)Cl)ccc1Cl)c1ccc(F)c(F)c1` (racemic) [F67, trans-rac-N-(2-Chloro-5-(2,2-dichloro-3-(3,5-dichlorophenyl)cyclopropane-1-carboxamido)phenyl)-3,4-difluorobenzamide], the “activity against YFM” value [1] is reported as “exhibited activity” and the “activity against BAW (percent mortality, averaged over eight wells)” value [2] is reported as “exhibited activity”.
With `O=C(Nc1cc(NC(=O)[C@H]2[C@H](c3cc(Cl)cc(Cl)c3)C2(Cl)Cl)ccc1Cl)c1cccc(F)c1F` (racemic) [F68, trans-rac-N-(2-Chloro-5-(2,2-dichloro-3-(3,5-dichlorophenyl)cyclopropane-1-carboxamido)phenyl)-2,3-difluorobenzamide] the “activity against YFM” value [1] was “exhibited activity” and the “activity against BAW (percent mortality, averaged over eight wells)” value [2] was “exhibited activity”.
`O=C(Nc1cc(NC(=O)[C@H]2[C@H](c3cc(Cl)cc(Cl)c3)C2(Cl)Cl)ccc1Cl)c1cc(F)ccc1F` (racemic) [F69, trans-rac-N-(2-Chloro-5-(2,2-dichloro-3-(3,5-dichlorophenyl)cyclopropane-1-carboxamido)phenyl)-2,5-difluorobenzamide] was tested, and the “activity against YFM” value [1] was “exhibited activity” and the “activity against BAW (percent mortality, averaged over eight wells)” value [2] was “exhibited activity”.
With `N#Cc1ccc(C(=O)Nc2cc(NC(=O)[C@H]3[C@H](c4cc(Cl)cc(Cl)c4)C3(Cl)Cl)ccc2Cl)cc1` (racemic) [F70, trans-rac-N-(2-Chloro-5-(2,2-dichloro-3-(3,5-dichlorophenyl)cyclopropane-1-carboxamido)phenyl)-4-cyanobenzamide] the “activity against YFM” value [1] was “exhibited activity” and the “activity against BAW (percent mortality, averaged over eight wells)” value [2] was “exhibited activity”.
With `N#Cc1ccc(C(=O)Nc2cc(NC(=O)[C@H]3[C@H](c4cc(Cl)cc(Cl)c4)C3(Cl)Cl)ccc2Cl)c(F)c1` (racemic) [F71, trans-rac-N-(2-Chloro-5-(2,2-dichloro-3-(3,5-dichlorophenyl)cyclopropane-1-carboxamido)phenyl)-4-cyano-2-fluorobenzamide] the “activity against YFM” value [1] was “exhibited activity” and the “activity against BAW (percent mortality, averaged over eight wells)” value [2] was “exhibited activity”.
`N#Cc1ccc(C(=O)Nc2cc(NC(=O)[C@H]3[C@H](c4cc(Cl)cc(Cl)c4)C3(Cl)Cl)ccc2Cl)cc1F` (racemic) [F72, trans-rac-N-(2-Chloro-5-(2,2-dichloro-3-(3,5-dichlorophenyl)cyclopropane-1-carboxamido)phenyl)-4-cyano-3-fluorobenzamide] was tested, and the “activity against YFM” value [1] was “exhibited activity” and the “activity against BAW (percent mortality, averaged over eight wells)” value [2] was “exhibited activity”.
`Cc1cccc(C(=O)Nc2cc(NC(=O)[C@H]3[C@H](c4cc(Cl)cc(Cl)c4)C3(Cl)Cl)ccc2Cl)c1` (racemic) [F74, trans-rac-N-(2-Chloro-5-(2,2-dichloro-3-(3,5-dichlorophenyl)cyclopropane-1-carboxamido)phenyl)-3-methylbenzamide] was tested, and the “activity against YFM” value [1] was “exhibited activity” and the “activity against BAW (percent mortality, averaged over eight wells)” value [2] was “exhibited activity”.
With `Cc1ccc(C(=O)Nc2cc(NC(=O)[C@H]3[C@H](c4cc(Cl)cc(Cl)c4)C3(Cl)Cl)ccc2Cl)cc1` (racemic) [F75, trans-rac-N-(2-Chloro-5-(2,2-dichloro-3-(3,5-dichlorophenyl)cyclopropane-1-carboxamido)phenyl)-4-methylbenzamide] the “activity against YFM” value [1] was “exhibited activity” and the “activity against BAW (percent mortality, averaged over eight wells)” value [2] was “exhibited activity”.
In the case of `Cc1cc(F)ccc1C(=O)Nc1cc(NC(=O)[C@H]2[C@H](c3cc(Cl)cc(Cl)c3)C2(Cl)Cl)ccc1Cl` (racemic) [F77, trans-rac-N-(2-Chloro-5-(2,2-dichloro-3-(3,5-dichlorophenyl)cyclopropane-1-carboxamido)phenyl)-4-fluoro-2-methylbenzamide], the “activity against YFM” value [1] is reported as “exhibited activity” and the “activity against BAW (percent mortality, averaged over eight wells)” value [2] is reported as “exhibited activity”.
For `O=C(Nc1cc(NC(=O)[C@H]2[C@H](c3cc(Cl)cc(Cl)c3)C2(Cl)Cl)ccc1Cl)c1ccccc1Cl` (racemic) [F78, trans-rac-2-Chloro-N-(2-chloro-5-(2,2-dichloro-3-(3,5-dichlorophenyl)cyclopropane-1-carboxamido)phenyl)benzamide], the “activity against YFM” value [1] was “exhibited activity” and the “activity against BAW (percent mortality, averaged over eight wells)” value [2] was “exhibited activity”.
For `O=C(Nc1cc(NC(=O)[C@H]2[C@H](c3cc(Cl)cc(Cl)c3)C2(Cl)Cl)ccc1Cl)c1ccc(Cl)cc1` (racemic) [F79, trans-rac-4-Chloro-N-(2-chloro-5-(2,2-dichloro-3-(3,5-dichlorophenyl)cyclopropane-1-carboxamido)phenyl)benzamide], the “activity against YFM” value [1] was “exhibited activity” and the “activity against BAW (percent mortality, averaged over eight wells)” value [2] was “exhibited activity”.
With `O=C(Nc1cc(NC(=O)[C@H]2[C@H](c3cc(Cl)cc(Cl)c3)C2(Cl)Cl)ccc1Cl)c1cc(Cl)cc(Cl)c1` (racemic) [F80, trans-rac-3,5-Dichloro-N-(2-chloro-5-(2,2-dichloro-3-(3,5-dichlorophenyl)cyclopropane-1-carboxamido)phenyl)benzamide] the “activity against YFM” value [1] was “exhibited activity” and the “activity against BAW (percent mortality, averaged over eight wells)” value [2] was “exhibited activity”.
For `O=C(Nc1cc(NC(=O)[C@H]2[C@H](c3cc(Cl)cc(Cl)c3)C2(Cl)Cl)ccc1Cl)c1ccc(C(F)(F)F)cc1` (racemic) [F82, trans-rac-N-(2-Chloro-5-(2,2-dichloro-3-(3,5-dichlorophenyl)cyclopropane-1-carboxamido)phenyl)-4-(trifluoromethyl)benzamide], the “activity against YFM” value [1] was “exhibited activity” and the “activity against BAW (percent mortality, averaged over eight wells)” value [2] was “exhibited activity”.
In the case of `O=C(Nc1cc(NC(=O)[C@H]2[C@H](c3cc(Cl)cc(Cl)c3)C2(Cl)Cl)ccc1Cl)c1ccc(F)c(C(F)(F)F)c1` (racemic) [F83, trans-rac-N-(2-Chloro-5-(2,2-dichloro-3-(3,5-dichlorophenyl)cyclopropane-1-carboxamido)phenyl)-4-fluoro-3-(trifluoromethyl)benzamide], the “activity against YFM” value [1] is reported as “exhibited activity” and the “activity against BAW (percent mortality, averaged over eight wells)” value [2] is reported as “exhibited activity”.
For `COc1cccc(C(=O)Nc2cc(NC(=O)[C@H]3[C@H](c4cc(Cl)cc(Cl)c4)C3(Cl)Cl)ccc2Cl)c1` (racemic) [F84, trans-rac-N-(2-Chloro-5-(2,2-dichloro-3-(3,5-dichlorophenyl)cyclopropane-1-carboxamido)phenyl)-3-methoxybenzamide], the “activity against YFM” value [1] was “exhibited activity” and the “activity against BAW (percent mortality, averaged over eight wells)” value [2] was “exhibited activity”.
For `COc1ccc(C(=O)Nc2cc(NC(=O)[C@H]3[C@H](c4cc(Cl)cc(Cl)c4)C3(Cl)Cl)ccc2Cl)cc1` (racemic) [F85, trans-rac-N-(2-Chloro-5-(2,2-dichloro-3-(3,5-dichlorophenyl)cyclopropane-1-carboxamido)phenyl)-4-methoxybenzamide], the “activity against YFM” value [1] was “exhibited activity” and the “activity against BAW (percent mortality, averaged over eight wells)” value [2] was “exhibited activity”.
